One compound from patent publication US20160067232A1, “METHODS FOR TREATING A STROKE-RELATED SENSORIMOTOR IMPAIRMENT USING AMINOPYRIDINES” (Acorda Therapeutics, Inc., priority 2011, published 2016) can be followed below.

For experiment [1], the system named is rats with middle cerebral artery occlusion (MCAO). Put plainly: Body swing test (% right swing), MCAO rats, double crossover study (Example 2). Type of experiment: in vivo, Sprague Dawley rat. Particulars: for Body Swing Test (% right Swing), individual animals: one value per rat. As for the experimental part:
4-AP was evaluated for its ability to promote functional sensorimotor improvement following ischemic stroke in rats with stable motor deficits at times remote from their ischemic events. The animal model mimics the conditions in human ischemic stroke and is produced by middle cerebral artery occlusion (MCAO), which results in extensive infarction in cerebral cortex and striatum, including the cortical spinal tract (white matter).
In particular, the MCAO model in Sprague Dawley rats that was utilized in the experiments presented below mimics the conditions in human ischemic stroke. In this model, focal cerebral infarcts were made by permanent occlusion of the proximal right middle cerebral artery (MCA) using a modification of the method of Tamura et al. (No To Shinkei 1986; 38:747-51). Briefly, the temporalis muscle was bisected and reflected through an incision made midway between the eye and the ear canal. The proximal MCA was exposed through a subtemporal craniectomy without removing the zygomatic arch and without transecting the facial nerve.
Dosing and Treatment: Rats were treated in accordance with the dosing schedule shown in Tables 2A, 2B, 3 and FIG. 2, with each Phase being a two week period of time. A solution of 4-AP was used in this experiment. Dosing was started at 4 weeks after ischemic event. 4-aminopyridine was dissolved in water for injection (WFI, Cellgro) and sterile filtered. Final concentrations of 0.315 mg/mL or 1.0 mg/mL of 4-aminopyridine were delivered at 2 mL/kg by gastric gavage, resulting in final doses of 0.63 mg/kg and 2 mg/kg respectively. Vehicle control treatment was WFI delivered at 2 mL/kg by gastric gavage. This study was divided into three treatment phases (1-3) with each randomized cohort of animals receiving a different dose level during each of the treatment phases. Starting on day 30 after MCAO (Day 30, start of phase 1), the animals received gavage dosing of solutions (2 mL/kg) approximately 12 hours apart, for a total of five doses. The same schedule was repeated with different treatment on Day 44 and Day 58 for phase 2 and 3 of the study, respectively. Animals were not treated during the 10 days between phases (washout period).
Treatment groups: Dosing was started 4 weeks after MCAO surgery. During these 4 weeks, weekly behavioral assessments, as defined below, were performed. Two dose levels of 4-AP plus vehicle control were assessed, with treatment starting at 4 weeks after ischemic event. All dosing was via gastric gavage, volume not to exceed 2 mL/kg. Animals were given the first dose and behavioral assessments were performed starting 60 minutes after dosing. Animals then received the second dose that day at the appropriate time and b.i.d (preferably every 12 hours) thereafter for 2 more days (3 total days of dosing, 5 total doses). One hour after the 5th dose, animals were subjected to behavioral assessments as defined below. Following the final behavioral assessment, drug was withdrawn for 10 or 11 days, behavior was re-assessed, and then animals were re-challenged with a cross-over treatment (Phase 2 of Table 2B) as described in Tables 2A, 2B and 3, followed by the same behavioral testing and dosing regimen. This cross-over was repeated one more time as well (Phase 3 of Table 2B) (see FIG. 2).
Behavioral test details: Behavioral evaluations were done by evaluators blinded to treatment assignment. Blinded assessments of sensorimotor function were performed just prior to MCAO surgery, 24 hours after MCAO surgery and weekly thereafter until the first phase of dosing using limb placing and body swing behavioral tests. As described above, behavioral assessments were timed exactly with dosing times. Animals were tested one hour after the 1st and 5th doses of each phase (i.e., Days 30 and 32 of the first phase, Days 44 and 46 of the second phase; and Days 58 and 60 of the third phase); animals were also tested during the washout periods on Days 42 and 56. […]

The test system is the same in experiment [2]. Put plainly: Cylinder test, total movement, MCAO rats (Example 2). The experiment is classed as in vivo, Sprague Dawley rat. Particulars: individual animals and Mean (N=15), listed as 4-AP. On the procedure:
Dosing and Treatment: Rats were treated in accordance with the dosing schedule shown in Tables 2A, 2B, 3 and FIG. 2, with each Phase being a two week period of time. A solution of 4-AP was used in this experiment. Dosing was started at 4 weeks after ischemic event. 4-aminopyridine was dissolved in water for injection (WFI, Cellgro) and sterile filtered. […] Vehicle control treatment was WFI delivered at 2 mL/kg by gastric gavage. […] Starting on day 30 after MCAO (Day 30, start of phase 1), the animals received gavage dosing of solutions (2 mL/kg) approximately 12 hours apart, for a total of five doses. The same schedule was repeated with different treatment on Day 44 and Day 58 for phase 2 and 3 of the study, respectively. Animals were not treated during the 10 days between phases (washout period). Treatment groups: Dosing was started 4 weeks after MCAO surgery. During these 4 weeks, weekly behavioral assessments, as defined below, were performed. Two dose levels of 4-AP plus vehicle control were assessed, with treatment starting at 4 weeks after ischemic event. […] Animals were given the first dose and behavioral assessments were performed starting 60 minutes after dosing. Animals then received the second dose that day at the appropriate time and b.i.d (preferably every 12 hours) thereafter for 2 more days (3 total days of dosing, 5 total doses). One hour after the 5th dose, animals were subjected to behavioral assessments as defined below. Following the final behavioral assessment, drug was withdrawn for 10 or 11 days, behavior was re-assessed, and then animals were re-challenged with a cross-over treatment (Phase 2 of Table 2B) as described in Tables 2A, 2B and 3, followed by the same behavioral testing and dosing regimen. This cross-over was repeated one more time as well (Phase 3 of Table 2B) (see FIG. 2). Cylinder Test: Evaluation was performed at Day −1 (pre-operation), Day 7, Day 21, Day 30, Day 32, Day 44, Day 46, Day 58, Day 60. This test assessed limb use asymmetry. Rats were placed in a transparent cylinder (20 cm in diameter and 30 cm in height) for 3-6 minutes. A mirror was placed behind the cylinder to determine forelimb movements when animal was turned away from the camera. […] Simultaneous use of both left and right forelimbs while contacting the wall during a full rear was also scored. A total number of 20 forelimb placings were counted during a trial. Data was expressed in terms of percent use of the non-impaired and or impaired forelimb relative to the total number of limb use observations for wall movements.

Where “and” joins values, the source holds several entries; their conditions need not be identical. Equal entries are not always repeated.

Regarding `Nc1ccncc1` [4-aminopyridine], the “Body swing function, low dose compared to vehicle, second mixed model” value in experiment [1] (0.63 mg/kg b.i.d. p.o., level 0.05) is “didn't show the statistical significant improvement”. The “Body swing function, low dose compared to vehicle, first mixed model” value in experiment [1] (0.63 mg/kg b.i.d. p.o., p=0.033) is reported as “significantly improved the body swing function”. The “Body swing function, high dose compared to vehicle” value in experiment [1] (2 mg/kg b.i.d. p.o., first mixed model p=0.0131, second p<0.0001) is given as “significantly improved the body swing function”. The “Body Swing Test (% right Swing), individual animals” value was 33.33% and 40.00% (2×) and 30.00% in experiment [1] (Group 1 (sequence hlv), D30 after MCAO, phase 1, high dose); 50.00% (3×) and 40.00% (2×) and 30.00% in experiment [1] (Group 1 (sequence hlv), D32 after MCAO, phase 1, high dose); 33.33% and 50.00% and 40.00% (2×) and 30.00% (2×) in experiment [1] (Group 1 (sequence hlv), D44 after MCAO, phase 2, low dose); 33.33% and 30.00% and 20.00% (2×) and 40.00% in experiment [1] (Group 1 (sequence hlv), D46 after MCAO, phase 2, low dose); 20.00% and 40.00% and 30.00% (2×) in experiment [1] (Group 2 (sequence lvh), D30 after MCAO, phase 1, low dose); 40.00% and 30.00% (2×) in experiment [1] (Group 2 (sequence lvh), D32 after MCAO, phase 1, low dose). In addition, the “Body Swing Test (% right Swing), individual animals” value was 40.00% and 50.00% (2×) in experiment [1] (Group 2 (sequence lvh), D58 after MCAO, phase 3, high dose); 40.00% (5×) and 50.00% (4×) in experiment [1] (Group 2 (sequence lvh), D60 after MCAO, phase 3, high dose); 40.00% (3×) and 43.33% (2×) and 46.67% (2×) and 53.33% and 13.33% and 36.67% and 50.00% (2×) and 23.33% and 33.33% in experiment [1] (Group 3 (sequence vhl), D44 after MCAO, phase 2, high dose); 40.00% (3×) and 43.33% (4×) and 50.00% and 30.00% (2×) and 53.33% (3×) and 20.00% and 23.33% in experiment [1] (Group 3 (sequence vhl), D46 after MCAO, phase 2, high dose); 30.00% (3×) and 46.67% (3×) and 40.00% (2×) and 20.00% (3×) and 53.33% and 33.33% in experiment [1] (Group 3 (sequence vhl), D58 after MCAO, phase 3, low dose); 30.00% (2×) and 43.33% (2×) and 36.67% (4×) and 50.00% (2×) and 26.67% and 23.33% in experiment [1] (Group 3 (sequence vhl), D60 after MCAO, phase 3, low dose). In experiment [1] (Group 3, third treatment phase, low dose 0.63 mg/kg), the “Body swing scores, Day 56 vs. Day 60” value is on record as “unchanged”. For the same compound, the “Effect on global body control, body swing test (FIG. 5)” value in experiment [1] (low or high dose, reversible and dose-dependent) is “effective to improve global body control”. In addition, the “Cylinder Test (Total Movement) Group 1, D30” value in experiment [2] (Group 1, D30, treatment phase 1 (high-dose 4-AP)) is 0.00 (5×) and 75.00 and 2.00 and 10.00 (2×) and 6.00 and 13.00 and 12.00 and 4.00 and 5.00 (2×). Also, the “Cylinder Test (Total Movement) Group 1, D32” value in experiment [2] (Group 1, D32, treatment phase 1 (high-dose 4-AP)) is 11.00 and 54.00 and 22.00 and 39.00 and 10.00 and 8.00 and 14.00 and 15.00 and 0.00 (2×) and 38.00 and 2.00 and 1.00 and 6.00 and 23.00. Also, the “Cylinder Test (Total Movement) Group 1, D44” value in experiment [2] (Group 1, D44, treatment phase 2 (low-dose 4-AP)) is 28.00 and 93.00 and 48.00 and 57.00 and 47.00 and 9.00 and 11.00 and 5.00 and 66.00 and 25.00 and 6.00 and 43.00 and 20.00 and 7.00. Besides, the “Cylinder Test (Total Movement) Group 1, D46” value in experiment [2] (Group 1, D46, treatment phase 2 (low-dose 4-AP)) is 11.00 and 47.00 and 43.00 and 48.00 and 46.00 and 12.00 and 63.00 and 4.00 and 0.00 (2×) and 13.00 and 2.00 and 6.00 and 39.00 and 24.00.
